The numbers were not newly measured in US10342816B2, “Aqueous ophthalmic formulations based on azithromycin” (MEDIVIS S.R.L., priority 2013, dated 2019), which cites them from elsewhere.

Molecules are shown by their SMILES.

The conditions of data set [1]: pharmacopoeia.
For data set [2] the following is noted: aqueous solution, phosphate buffer, low ionic strength.

For the compound `CC[C@H]1OC(=O)[C@H](C)[C@@H](O[C@H]2CC(C)(OC)[C@@H](O)C(C)O2)[C@H](C)[C@@H](O[C@@H]2OC(C)CC(N(C)C)C2O)[C@](C)(O)C[C@@H](C)CN(C)[C@H](C)[C@@H](O)[C@]1(C)O` (some centres unmarked) [azithromycin], the solubility in water entry in data set [1] was “poorly soluble in water”. For the same compound, the “pH at which the kinetics of the hydrolytic phenomenon has the minimum value” in data set [2] is 6.3.
